One data set has as its system NF-κB. The experiment in a line: NF-κB luciferase reporter assay in A549/NF-κBLuc cells stimulated with IL-1β. To be noted: compound added 1 hour before IL-1β, then 3 hours incubation, luciferase activity, read-out: NF-κB Inhibitory Activity (IC50). The class given is cell-based, human. The method, then: Effect on Human Lung Cancer-Derived Cell A549 (A549/NF-κBluc) Containing Stably Introduced Luciferase Plasmid (pNFκB-Luc, Stratagene. U.S.A.) Regulated by NF-κB Binding Sequence
Using Lipofectamine (Lifetech Oriental, Tokyo), pNFκB-Luc and pSV2neo (Clontech, U.S.A.) were co-transfected into the A549 cell (ATCC CCL185) and G418 sulfate (1 mg/ml, Lifetech Oriental) was added to the culture medium to select cells containing stably introduced pNFκB-Luc A549/NF-κBLuc.
The compound obtained in Examples each was added to A549/NF-κBLuc and one hour after that, IL-1β capable of activating NF-κB was added. The incubation was further continued for 3 hours.
NF-κB Inhibitory Activity (IC50) of Substituted Benzoic Acid Derivitives: […]

Where [1] appears, read: Homo sapiens, A549, A549/NF-κBLuc cells.

As usually defined, the melting point is the temperature, or range, at which the solid turns liquid. A word on the IC50: it is the point on the concentration scale where inhibition reaches its midpoint.

Counter-ions that a name gives are not always drawn. Like-named read-outs stand apart in the source and are kept apart here.

`COC1=C(OC)C(=O)C(Cc2ccc(O)c(C(=O)NC3CC3)c2)=C(C)C1=O` [Example 160, N-Cyclopropyl-5-(5,6-dimethoxy-3-methyl-1,4-benzoquinon-2-yl)methyl-2-hydroxybenzamide]: the melting point is 111 to 112 °C.
Compound `COC1=C(OC)C(=O)C(Cc2ccc(OC(C)=O)c(C(=O)NC3CCCCC3)c2)=C(C)C1=O` [Example 161, N-Cyclohexyl-5-(5,6-dimethoxy-3-methyl-1,4-benzoquinon-2-yl)methyl-2-acetoxybenzamide] registered a melting point of 137.5 to 140 °C.
On the same count and under the same terms, the value for `COC1=C(OC)C(=O)C(Cc2ccc(O)c(C(=O)Nc3c(Cl)cc(OC(F)(F)F)cc3Cl)c2)=C(C)C1=O` [Example 192, N-[5-(5,6-Dimethoxy-3-methyl-1,4-benzoquinon-2-yl)methyl-2-hydroxybenzoyl]-2,6-dichloro-4-trifluoromethoxyaniline] was 138 to 141 °C.
In turn, `COC1=C(OC)C(=O)C(Cc2cccc(C(=O)Nc3ccc(Cl)cc3Cl)c2O)=C(C)C1=O` [Example 177, N-[3-(5,6-Dimethoxy-3-methyl-1,4-benzoquinon-2-yl)methyl-2-hydroxybenzoyl]-2,4-dichloroaniline] showed a melting point of 147 to 150 °C.
`COC1=C(OC)C(=O)C(Cc2ccc(OCc3ccncc3)c(C(=O)N3CCCCC3)c2)=C(C)C1=O` [Example 95 (pTsOH)]: in the data set with NF-κB (A549/NF-κBLuc cells), the IC50 turned out to be 51 µM.
With `COC1=C(OC)C(=O)C(Cc2ccc(OC(C)=O)c(C(=O)Nc3ccc(C(C)=O)cc3)c2)=C(C)C1=O` [Example 108, N-[5-(5,6-Dimethoxy-3-methyl-1,4-benzoquinon-2-yl)methyl-2-acetoxybenzoyl]-4-acetylaniline], the IC50 in the data set on NF-κB (setting [1]) was 67 µM.
On the same count and under the same terms, the result for `COC1=C(OC)C(=O)C(Cc2ccc(OC(C)=O)c(C(=O)Nc3cccnc3N3CCOCC3)c2)=C(C)C1=O` [Example 222, N-(2-Morpholinopyridin-3-yl)-5-(5,6-dimethoxy-3-methyl-1,4-benzoquinon-2-yl)methyl-2-acetoxybenzamide] reads 77 µg/mL; that for `COC1=C(OC)C(=O)C(Cc2cccc(OCc3ccccc3)c2C(=O)Nc2ccc(OC)cc2)=C(C)C1=O` [Example 60, N-[6-(5,6-Dimethoxy-3-methyl-1,4-benzoquinon-2-yl)methyl-2-benzyloxybenzoyl]-4-methoxyaniline], 19 µM.
The same measure, in the same setting: the result for `COC1=C(OC)C(=O)C(Cc2ccc(O)c(C(=O)Nc3ccc(OC)c(OC)c3)c2)=C(C)C1=O` [Example 115, N-[5-(5,6-Dimethoxy-3-methyl-1,4-benzoquinon-2-yl)methyl-2-hydroxybenzoyl]-3,4-dimethoxyaniline] reads 36 µM; that for `COC1=C(OC)C(=O)C(Cc2cccc(C(=O)N3CCOCC3)c2OC(C)=O)=C(C)C1=O` [Example 72, N-[3-(5,6-Dimethoxy-3-methyl-1,4-benzoquinon-2-yl)methyl-2-acetoxybenzoyl]morpholine], 43 µM.
On to `COC1=C(OC)C(=O)C(Cc2cccc(C(=O)Nc3ccc(OC)cc3)c2O)=C(C)C1=O` [Example 79, N-[3-(5,6-Dimethoxy-3-methyl-1,4-benzoquinon-2-yl)methyl-2-hydroxybenzoyl]-4-methoxyaniline], for which, in the data set with NF-κB (setting [1]), the IC50 came to 27 µM.
In the case of `COC1=C(OC)C(=O)C(Cc2ccc(OC(C)=O)c(C(=O)Nc3ccc(OC)c(OC)c3)c2)=C(C)C1=O` [Example 107, N-[5-(5,6-Dimethoxy-3-methyl-1,4-benzoquinon-2-yl)methyl-2-acetoxybenzoyl]-3,4-dimethoxyaniline], the IC50 in the data set with NF-κB (setting [1]) amounted to 84 µM.
As for `COC1=C(OC)C(=O)C(Cc2ccc(OC(C)=O)c(C(=O)Nc3ccc(C#N)cc3)c2)=C(C)C1=O` [Example 111, N-[5-(5,6-Dimethoxy-3-methyl-1,4-benzoquinon-2-yl)methyl-2-acetoxybenzoyl]-4-cyanoaniline], the concentration for half-maximal inhibition (IC50) in the data set on NF-κB (setting [1]) is 25 µM.
For `COC1=C(OC)C(=O)C(Cc2ccc(OCc3ccccc3)c(C(=O)N3CCCCC3)c2)=C(C)C1=O` [Example 61, N-[5-(5,6-Dimethoxy-3-methyl-1,4-benzoquinon-2-yl)methyl-2-benzyloxybenzoyl]piperidine], the IC50 with NF-κB (setting [1]) turned out to be 31 µM.
Same read-out and setting: the result for `COC1=C(OC)C(=O)C(Cc2ccc(O)c(C(=O)Nc3cc(C(F)(F)F)cc(C(F)(F)F)c3)c2)=C(C)C1=O` [Example 121, N-[5-(5,6-Dimethoxy-3-methyl-1,4-benzoquinon-2-yl)methyl-2-hydroxybenzoyl]-3,5-bistrifluoromethylaniline] reads 64 µM.
On the same count and under the same terms, the value for `COC1=C(OC)C(=O)C(Cc2ccc(OCc3cccnc3)c(C(=O)Nc3cc(OC)c(OC)c(OC)c3)c2)=C(C)C1=O` [Example 128, N-[5-(5,6-Dimethoxy-3-methyl-1,4-benzoquinon-2-yl)methyl-2-(3-pyridylmethyloxy)benzoyl]-3,4,5-trimethoxyaniline] was 19 µM; that for `COC1=C(OC)C(=O)C(Cc2cccc(C(=O)Nc3ccc(OC)cc3)c2OC(C)=O)=C(C)C1=O` [Example 73, N-[3-(5,6-Dimethoxy-3-methyl-1,4-benzoquinon-2-yl)methyl-2-acetoxybenzoyl]-4-methoxyaniline] was 31 µM.
For the compound `COC1=C(OC)C(=O)C(Cc2ccc(OCc3cccnc3)c(C(=O)N3CCCCC3)c2)=C(C)C1=O` [Example 92 (HCl)], in the data set on NF-κB (A549/NF-κBLuc cells), the concentration for half-maximal inhibition (IC50) came out at 46 µM.
In the case of `COC1=C(OC)C(=O)C(Cc2ccc(O)c(C(=O)N(C)c3ccc(OC)cc3)c2)=C(C)C1=O` [Example 164, N-Methyl-[5-(5,6-dimethoxy-3-methyl-1,4-benzoquinon-2-yl)methyl-2-hydroxybenzoyl]-4-methoxyaniline], in the data set with NF-κB (setting [1]), the IC50 came to 20 µg/mL.
With `COC1=C(OC)C(=O)C(Cc2ccc(O)c(C(=O)Nc3ccc(N)cc3)c2)=C(C)C1=O` [Example 204, N-[5-(5,6-Dimethoxy-3-methyl-1,4-benzoquinon-2-yl)methyl-2-hydroxybenzoyl]-p-phenylenediamine], the IC50 in the data set on NF-κB (setting [1]) amounted to 47 µg/mL.
On the same count and under the same terms, the value for `COC1=C(OC)C(=O)C(Cc2ccc(OC)c(C(=O)Nc3ccc(OC)cc3)c2)=C(C)C1=O` [Example 82, N-[5-(5,6-Dimethoxy-3-methyl-1,4-benzoquinon-2-yl)methyl-2-methoxybenzoyl]-4-methoxyaniline] was 84 µM; that for `COC1=C(OC)C(=O)C(Cc2ccc(O)c(C(=O)Nc3cc(OC)c(OC)c(OC)c3)c2)=C(C)C1=O` [Example 114, N-[5-(5,6-Dimethoxy-3-methyl-1,4-benzoquinon-2-yl)methyl-2-hydroxybenzoyl]-3,4,5-trimethoxyaniline] was 48 µM.
As to `COC1=C(OC)C(=O)C(Cc2ccc(OCc3cccnc3)c(C(=O)N3CCCc4ccccc43)c2)=C(C)C1=O` [Example 126, N-[5-(5,6-Dimethoxy-3-methyl-1,4-benzoquinon-2-yl)methyl-2-(3-pyridylmethyloxy)benzoyl]-1,2,3,4-tetrahydroquinoline], the IC50 in the data set on NF-κB (setting [1]) was 24 µM.
In the case of `COC1=C(OC)C(=O)C(Cc2ccc(OC(C)=O)c(C(=O)Nc3ccc(Cl)cc3)c2)=C(C)C1=O` [Example 109, N-[5-(5,6-Dimethoxy-3-methyl-1,4-benzoquinon-2-yl)methyl-2-acetoxybenzoyl]-4-chloroaniline], the IC50 with NF-κB (setting [1]) is 46 µM.
The same measure, in the same setting: the value for `COC1=C(OC)C(=O)C(Cc2ccc(OC(C)=O)c(C(=O)Nc3cccnc3)c2)=C(C)C1=O` [Example 201, N-(Pyridin-3-yl)-5-(5,6-dimethoxy-3-methyl-1,4-benzoquinon-2-yl)methyl-2-acetoxybenzamide] was 16 µg/mL.

The values above are taken from patent publication US7064124B2, “NF-κB inhibitor containing substituted benzoic acid derivative as active ingredient” (Daiichi Suntory Pharma Co., Ltd., priority 2001, dated 2006).
